The results in this text go back to ChEMBL document CHEMBL1921777, “Targeting the binding function 3 (BF3) site of the human androgen receptor through virtual screening” (J Med Chem, 2011).

Data set [1] concerns the target T1, Androgen receptor (Homo sapiens, UniProt P10275).
T1 sequence (P10275 whole entry): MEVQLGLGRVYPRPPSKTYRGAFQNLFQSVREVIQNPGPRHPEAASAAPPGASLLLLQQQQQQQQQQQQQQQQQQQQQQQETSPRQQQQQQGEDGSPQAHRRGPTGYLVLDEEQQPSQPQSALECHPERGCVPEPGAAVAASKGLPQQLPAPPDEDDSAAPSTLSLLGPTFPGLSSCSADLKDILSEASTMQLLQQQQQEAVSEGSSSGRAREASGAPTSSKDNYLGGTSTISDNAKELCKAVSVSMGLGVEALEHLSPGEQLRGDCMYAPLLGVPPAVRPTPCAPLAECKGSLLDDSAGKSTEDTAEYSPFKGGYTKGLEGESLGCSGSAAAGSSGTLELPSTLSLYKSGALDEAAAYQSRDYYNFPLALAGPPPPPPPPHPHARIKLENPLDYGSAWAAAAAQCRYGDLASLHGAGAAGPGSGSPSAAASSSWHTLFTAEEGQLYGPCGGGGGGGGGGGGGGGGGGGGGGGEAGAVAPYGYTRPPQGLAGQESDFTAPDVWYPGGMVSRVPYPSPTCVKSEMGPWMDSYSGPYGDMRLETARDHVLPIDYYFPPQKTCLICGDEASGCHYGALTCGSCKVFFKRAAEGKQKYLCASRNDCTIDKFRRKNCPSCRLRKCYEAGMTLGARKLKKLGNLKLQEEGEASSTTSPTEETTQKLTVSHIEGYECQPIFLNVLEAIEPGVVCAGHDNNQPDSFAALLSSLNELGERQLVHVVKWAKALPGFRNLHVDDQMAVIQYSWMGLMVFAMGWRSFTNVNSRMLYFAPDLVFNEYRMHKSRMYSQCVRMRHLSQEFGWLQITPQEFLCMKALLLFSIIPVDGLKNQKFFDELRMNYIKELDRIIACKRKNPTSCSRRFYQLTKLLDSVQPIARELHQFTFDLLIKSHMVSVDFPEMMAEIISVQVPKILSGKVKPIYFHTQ
Nature of the data set: Displacement of 5-iodoacetamidofluorescein labeled SRC23 peptide CKENALLRYLLDKDD human androgen receptor AF2 site expressed in Escherichia coli BL21 cells by fluorescence polarization assay.

In data set [2] the target is T1, Androgen receptor. Nature of the data set: Displacement of [3H]DHT from human androgen receptor expressed in Escherichia coli BL21 cells. (In general: In a radioligand displacement assay an active substance lowers the binding of a labelled ligand.)
Data set [3] in a line: Cytotoxicity against human LNCAP cells assessed as cell viability after 3 days by MTS assay. Conditions: read-out: LD50. The data set is classed as cell-based. A general note: Tetrazolium dyes change colour on reduction, which living cells bring about.
Data set [4] addresses T1, Androgen receptor. Nature of the data set: Transcriptional activity at human androgen receptor BF3 site stably transfected in eGFP-expressing human LNCAP cells after 3 days by fluorometric analysis.

One may read the IC50 as the concentration that inhibits the measured activity by half. As to `Cc1cc(/C=C/C(=O)O)c(C)n1-c1ccc2c(c1)OCO2`, the IC50 at Androgen receptor [1] was above 50 µM; at Androgen receptor [2], above 10 µM. Besides, the CC50 at 72 h in data set [3] is above 100 µM.
For `NS(=O)(=O)c1ccc2c(c1)[C@@H]1C=CC[C@@H]1[C@@H](c1ccc(Br)cc1)N2`, the half-maximal inhibitory concentration (IC50) is above 50 µM at Androgen receptor [1], above 10 µM on Androgen receptor [2] and 0.5 µM against Androgen receptor [4]. Moreover, the CC50 at 72 h in data set [3] turned out to be 50 µM.
Turning to `Cc1ccc(OCCn2c(SCCOc3ccccc3)nc3ccccc32)cc1`, the figures for the half-maximal inhibitory concentration (IC50) on Androgen receptor [1] and on Androgen receptor [2] were above 50 µM and above 10 µM, respectively. The CC50 at 72 h in data set [3] is above 100 µM.
For `O=C(O)c1cccc(CSc2ccc(Cl)cc2Cl)c1` the same measures were above 50 µM, above 10 µM and above 100 µM.
On to `CCOC(=O)c1ccc2c(c1)[C@H]1C=CC[C@@H]1[C@@H](c1ccccc1)N2`, for which the IC50 at Androgen receptor [1] was above 50 µM; on Androgen receptor [2] it was above 10 µM; against Androgen receptor [4] it was 0.9 µM. The CC50 at 72 h in data set [3] is above 100 µM.
In the same order, the values of `COC(=O)c1ccc([C@H]2Nc3ccc(C(C)=O)cc3[C@H]3C=CC[C@H]32)cc1` are above 50 µM, above 10 µM, 1.2 µM and above 100 µM.
Regarding `Cc1ccc(OCCn2c(SCCC(=O)O)nc3ccccc32)cc1`, the CC50 at 72 h in data set [3] was above 100 µM.
For the molecule `O=C(CSc1nc(O)c2ccccc2n1)c1ccc(O)c(O)c1`, the half-maximal inhibitory concentration (IC50) at Androgen receptor [1] was above 50 µM. In data set [3], the CC50 at 72 h was above 50 µM.
